Experimental data as given in US11512069B2, “TLR7/8 antagonists and uses thereof” (Merck Patent GmbH, priority 2016, dated 2022).

Biological target: T1, TLR7 (Homo sapiens, UniProt Q9NYK1)
T1 construct: expressed in transfected cells; host or cells: HEK cells carrying TLR7 and an NF-kB reporter read with Steady-Glo
T1 sequence (Q9NYK1 27-1049): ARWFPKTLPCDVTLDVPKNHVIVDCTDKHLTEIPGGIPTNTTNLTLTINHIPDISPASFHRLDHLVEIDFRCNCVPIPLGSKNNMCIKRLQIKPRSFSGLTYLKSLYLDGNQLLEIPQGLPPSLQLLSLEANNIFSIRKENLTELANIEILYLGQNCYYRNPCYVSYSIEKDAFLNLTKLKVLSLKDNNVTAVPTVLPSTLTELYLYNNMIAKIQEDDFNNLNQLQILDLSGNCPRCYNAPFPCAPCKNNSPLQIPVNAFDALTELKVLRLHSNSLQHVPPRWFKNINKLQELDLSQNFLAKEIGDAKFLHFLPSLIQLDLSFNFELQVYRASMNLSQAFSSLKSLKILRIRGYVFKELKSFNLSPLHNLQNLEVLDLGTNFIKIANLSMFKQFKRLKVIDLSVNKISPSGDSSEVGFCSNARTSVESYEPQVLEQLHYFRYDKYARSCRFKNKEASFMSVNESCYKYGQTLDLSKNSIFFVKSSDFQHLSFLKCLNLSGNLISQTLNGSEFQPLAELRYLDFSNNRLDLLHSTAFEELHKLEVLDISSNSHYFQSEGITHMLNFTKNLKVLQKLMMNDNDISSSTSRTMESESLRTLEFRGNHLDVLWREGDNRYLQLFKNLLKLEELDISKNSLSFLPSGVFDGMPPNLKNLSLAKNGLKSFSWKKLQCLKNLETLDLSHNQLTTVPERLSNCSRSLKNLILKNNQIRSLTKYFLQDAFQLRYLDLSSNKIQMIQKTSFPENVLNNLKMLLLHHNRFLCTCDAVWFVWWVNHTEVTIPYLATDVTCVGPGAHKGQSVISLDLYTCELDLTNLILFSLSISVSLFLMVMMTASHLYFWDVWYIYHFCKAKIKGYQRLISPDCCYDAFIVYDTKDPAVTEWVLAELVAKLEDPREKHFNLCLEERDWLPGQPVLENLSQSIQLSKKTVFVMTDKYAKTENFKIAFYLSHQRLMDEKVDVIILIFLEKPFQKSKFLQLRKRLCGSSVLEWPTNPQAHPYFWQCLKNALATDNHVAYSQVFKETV
Assay: HEK Cell Assay (TLR7/NFKb HEK reporter cells, Steady-Glo)
Format: cell-based
Conditions: compound 30 min, then R*48 agonist 5 hours, Steady-Glo readout, read-out: Potency
Method: Example 32: HEK Cell Assay
Into 384 CulturePlates (Corning 3707) was placed 5000 c/w of TLR7/NFKb HEK cells in 30 uL DMEM without Phenil red (gibco #31053) and 10% i.a. FCS and 2 mM L-ZGLutamin. The cells were incubated for 24 h at 37 degrees Celsius, 10% carbon dioxide and 90% relative humidity, 3 uL of controls, standards, and compounds were dispensed to wells, incubated for 30 min then 3 uL of R*48 agonist in 20 mM Hepes was added. After incubation for 5 hours, it was allowed to stand at room temperature for 15 min, 10 uL of Steady-Glo substrate reagent was added and shake assay plate for 5 min at 1500 rpm. The assay plate was allowed to sit for 30 min at room temperature and then read plate on EnVision.

Compound | IC50 [µM]
C[C@@H]1C[C@@H](c2ccc(C#N)c3ncccc23)CN(C(=O)[C@@H](N)C2CC2)C1 [Compound 60, trans-1-((S)-2-Amino-2-cyclopropyl-acetyl)-5-methyl-piperidin-3-yl-quinoline-8-carbonitrile] | 1 to 20
C[C@H]1C[C@@H](N)C[C@H](c2ccc(C(F)(F)F)c3ncccc23)C1 [Compound 137, (1R,3R,5R)-3-methyl-5-(8-(trifluoromethyl)quinolin-5-yl)cyclohexanamine] | 1 to 20
CC1C[C@H](c2ccc(C#N)c3ncccc23)CN(C(=O)CC(F)(F)F)C1 (stereo partly shown) [Compound 27] | > 20
C[C@@H]1C[C@H](c2ccc(C#N)c3ncccc23)CN(C(=O)C2CCC(F)(F)CC2)C1 (relative stereo) [Compound 37, cis-5-[1-(4,4-Difluoro-cyclohexanecarbonyl)-5-methyl-piperidin-3-yl]-quinoline-8-carbonitrile] | > 20
C[C@H]1C[C@@H](NC(=O)[C@@H](N)C(F)(F)F)C[C@@H](c2ccc(C#N)c3nccnc23)C1 (racemic) [Compound 143, (2R)-2-amino-N-((cis-1,3,5)-3-(8-cyanoquinoxalin-5-yl)-5-methylcyclohexyl)-3,3,3-trifluoropropanamide] | 1 to 20
C[C@@H]1C[C@@H](c2ccc(C(F)(F)F)c3ncccc23)CN(CCO)C1 (relative stereo) [Compound 8] | > 20
C[C@@H]1C[C@H](c2ccc(C#N)c3ncccc23)CN(CC(N)=O)C1 (relative stereo) [Compound 67] | > 20
C[C@H]1C[C@H](c2ccc(C#N)c3nccnc23)CN(C(=O)CC2CCN(C)CC2)C1 [Compound 101, 8-{(3R,5S)-5-Methyl-1-[2-(1-methyl-piperidin-4-yl)-acetyl]-piperidin-3-yl}-quinoxaline-5-carbonitrile] | > 20
COCCN[C@@H]1C[C@H](C)C[C@H](c2ccc(F)c3nccnc23)C1 (racemic) [Compound 159, (cis-1,3,5)-3-(8-fluoroquinoxaline-5-yl)-N-(2-methoxyethyl)-5-methylcyclohexan-1-amine] | 1 to 20
C[C@@H]1C[C@H](c2ccc(C#N)c3ncccc23)CN(C(=O)c2ccc(N3CCC3)nc2)C1 (relative stereo) [Compound 36, cis-5-[1-(6-Azetidin-1-yl-pyridine-3-carbonyl)-5-methyl-piperidin-3-yl]-quinoline-8-carbonitrile] | > 20
C[C@@H]1C[C@H](NC(=O)[C@@H](O)C(C)(C)C)C[C@H](c2ccc(C(F)(F)F)c3nccnc23)C1 [Compound 155, (S)-2-hydroxy-3,3-dimethyl-N-((1S,3S,5R)-3-methyl-5-(8-(trifluoromethyl)quinoxalin-5-yl)cyclohexyl)butanamide] | 1 to 20
COCCN[C@H]1C[C@@H](C)C[C@@H](c2ccc(C(F)(F)F)c3nccnc23)C1 [Compound 148, (1S,3S,5R)—N-(2-methoxyethyl)-3-methyl-5-(8-(trifluoromethyl)quinoxalin-5-yl)cyclohexanamine] | 1 to 20
C[C@@H]1CC(c2ccc(C(F)(F)F)c3ncccc23)CN(C(=O)CCn2cccn2)C1 (stereo partly shown) [Compound 12] | > 20
COCCN[C@@H]1C[C@H](C)C[C@@H](c2ccc(C(F)(F)F)c3ncccc23)C1 (racemic) [Compound 151, (1,trans-3,trans-5,cis)-N-(2-methoxyethyl)-3-methyl-5-(8-(trifluoromethyl)quinolin-5-yl)cyclohexanamine] | 1 to 20
C[C@@H]1C[C@H](c2ccc(C#N)c3ncccc23)CN(C(=O)CC2(N)CC2)C1 (relative stereo) [Compound 62, Cis-1-[2-(1-Amino-cyclopropyl)-acetyl]-5-methyl-piperidin-3-yl-quinoline-8-carbonitrile] | 1 to 20
C[C@@H]1C[C@H](c2ccc(C#N)c3ncccc23)CN(C(=O)C[C@H]2CCN(C)CC2(F)F)C1 [Compound 91, 5-{(3R,5R)-1-[2-((R)-3,3-Difluoro-1-methyl-piperidin-4-yl)-acetyl]-5-methyl-piperidin-3-yl}-quinoline-8-carbonitrile] | 1 to 20
C[C@@H]1C[C@@H](c2ccc(C#N)c3ncccc23)CN(C(=O)C2CN(C)C2)C1 (relative stereo) [Compound 32] | 1 to 20
C[C@@H]1C[C@@H](c2ccc(C#N)c3ncccc23)CN(CC(=O)NC2CCN(C)CC2)C1 (relative stereo) [Compound 69, trans-2-[3-(8-Cyano-quinolin-5-yl)-5-methyl-piperidin-1-yl]-N-(1-methyl-piperidin-4-yl)-acetamide] | 1 to 20
C[C@@H]1C[C@H](c2ccc(C(F)(F)F)c3ncccc23)CN(C(=O)NC2CC2)C1 (relative stereo) [Compound 40, cis-Cyclopropyl-3-methyl-5-[8-(trifluoromethyl)-5-quinolyl] piperidine-1-carboxamide] | 1 to 20

Next, values leading:

IC50 [µM] | Compound
< 1 | C[C@H]1C[C@@H](NC(=O)CN(C)C)C[C@@H](c2ccc(C#N)c3nccnc23)C1 (racemic) [Compound 131, N-[(cis-1,3,5)-3-(8-cyanoquinoxalin-5-yl)-5-methylcyclohexyl]-2-(dimethylamino)acetamide]
< 1 | C[C@@H]1C[C@@H](c2ccc(C#N)c3ncccc23)CN(C(=O)CN2CCN(C)CC2)C1 (relative stereo) [Compound 30]
> 20 | COCCN[C@@H]1C[C@H](C)C[C@H](c2ccc(F)c3ncccc23)C1 [Compound 160, (cis-1,3,5)-3-(8-fluoroquinolin-5-yl)-N-(2-methoxyethyl)-5-methylcyclohexan-1-amine]
< 1 | C[C@@H]1C[C@H](c2ccc(C#N)c3ncccc23)CN(C(=O)CC2[C@H]3CN(C)C[C@@H]23)C1 (relative stereo) [Compound 79]
< 1 | C[C@@H]1C[C@H](c2ccc(C#N)c3ncccc23)CN(C(=O)C2CC(N)C2)C1 (stereo partly drawn) [Compound 100, 5-[(3R,5R)-1-(3-aminocyclobutanecarbonyl)-5-methyl-3-piperidyl]quinoline-8-carbonitrile]
> 20 | CC1CC(c2ccc(C(F)(F)F)c3ncccc23)CN(c2ccon2)C1 (stereo not shown) [Compound 57, 5-(1-Isoxazol-3-yl-5-methyl-piperidin-3-yl)-8-trifluoromethyl-quinoline]
> 20 | C[C@@H]1C[C@H](c2ccc(C#N)c3ncccc23)CN(Cc2cnn(C)c2)C1 [Compound 106, 5-[(3R,5R)-5-methyl-1-[(1-methylpyrazol-4-yl)methyl]-3-piperidyl]quinoline-8-carbonitrile]
1 to 20 | C[C@@H]1C[C@H](c2ccc(C#N)c3ncccc23)CN(CC(=O)N2CCC(N(C)C)CC2)C1 (relative stereo) [Compound 70, cis-5-(1-{2-[4-(dimethylamino)piperidin-1-yl]-2-oxoethyl}-5-methylpiperidin-3-yl) quinoline-8-carbonitrile]
1 to 20 | C[C@@H]1C[C@H](c2ccc(C#N)c3ncccc23)CN(C(=O)CC2CN(C)C2)C1 (relative stereo) [Compound 34, cis-1-Methyl-1-[2-(1-methyl-azetidin-3-yl)-acetyl]-piperidin-3-yl-quinoline-8-carbonitrile]
< 1 | C[C@@H]1C[C@H](c2ccc(C(F)(F)F)c3ncccc23)CN(C(=O)CC2CCN(C)CC2)C1 [Compound 42, 2-(1-Methyl-piperidin-4-yl)-1-[(3R,5R)-3-methyl-5-(8-trifluoromethyl-quinolin-5-yl)-piperidin-1-yl]-ethanone]
1 to 20 | C[C@H]1C[C@@H](N)C[C@H](c2ccc(C(F)(F)F)c3nccnc23)C1 [Compound 140, (1R,3R,5R)-3-methyl-5-(8-(trifluoromethyl)quinoxalin-5-yl)cyclohexanamine]
1 to 20 | C[C@@H]1C[C@H](c2cccc3ncccc23)CN(C(=O)NC2CCN(C)CC2)C1 [Compound 115, (3R,5R)-3-Methyl-5-quinolin-5-yl-piperidine-1-carboxylic acid (1-methyl-piperidin-4-yl)-amide]
